Laboratory results: US20260048051A1, “TREATMENT OF INFLAMMATORY BOWEL DISEASE” (Atomwise Inc., priority 2024, published 2026)

The compounds below were run against T1, TYK2-JH2 (Homo sapiens, UniProt P29597) (assay: TYK2-JH2 HTRF binding assay (ligand efficiency)). Settings: calculated from binding-assay IC50 (Equation 1).
T1 construct: TYK JH2 enzyme mix (ChemPartner: CP20210818A-BV); purchased ChemPartner CP20210818A-BV
Experimental: The following example describes the TYK2-JH2 HTRF binding assay used to determine the ligand efficiency of the TYK2 inhibitors.
To calculate ligand efficiency, Equation 1 is applied: […]
in which IC50 comes from the binding assay used to determine compound potency.
TYK JH2 enzyme mix (ChemPartner: CP20210818A-BV), tracer (ChemPartner: CP-0029472-051) and mAb Anti-6HIS Tb cryptate Gold (Cisbio: Cat No. 61HI2TLA) mix were prepared in assay buffer (10 mM MgCl2, 20 mM HEPES pH 7.5, 0.01% Triton X-100, 1 mM DTT). Compounds diluted in DMSO (Final Concentrations 0.1 to 0.000005 [μM]) and enzyme mix (0.5 nM Final Concentration) were added to 384 well plates, briefly centrifuged and incubated at room temperature for 10 minutes. After incubation, tracer mix (Tracer-35 nM final concentration); (MAb Anti-6HIS Tb cryptate Gold-0.5× final)) was added, briefly centrifuged then incubate at room temperature 60 minutes. After incubation, plates were read by Envision TR-FRET (Ex340/Em495/520) protocol (PerkinElmer-Envision 2104 multilabel plate reader).

T1 sequence (P29597 589-875 limits assumed): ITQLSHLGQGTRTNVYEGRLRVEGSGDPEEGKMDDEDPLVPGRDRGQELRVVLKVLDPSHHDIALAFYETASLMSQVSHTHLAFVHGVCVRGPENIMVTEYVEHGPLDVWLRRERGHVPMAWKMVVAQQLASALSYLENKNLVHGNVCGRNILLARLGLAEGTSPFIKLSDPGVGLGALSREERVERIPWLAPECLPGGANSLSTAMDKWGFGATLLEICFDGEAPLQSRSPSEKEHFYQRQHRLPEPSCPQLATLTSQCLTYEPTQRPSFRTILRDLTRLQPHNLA

Row | SMILES | Ligand Efficiency
1 | CS(=O)(=O)c1ccccc1Nc1cc(Nc2ccc(N3CCOCC3)cn2)ncn1 [Compound 42, N^4-(2-(methylsulfonyl)phenyl)-N^6-(5-morpholinopyridin-2-yl) pyrimidine-4,6-diamine] | ††† (†††: >0.39)
2 | C[C@H]1CN(C)CCN1c1ccc(Nc2cc(Nc3ncccc3S(C)(=O)=O)ncn2)nc1 [Compound 20, (S)—N^4-(5-(2,4-dimethylpiperazin-1-yl)pyridin-2-yl)-N^6-(3-(methylsulfonyl)pyridin-2-yl)pyrimidine-4,6-diamine] | ††† (†††: >0.39)
3 | CS(=O)(=O)c1cccnc1Nc1cc(Nc2ccc(N3CCC4(CCO4)CC3)cn2)ncn1 [Compound 24, N^4-(5-(1-oxa-7-azaspiro[3.5]nonan-7-yl)pyridin-2-yl)-N^6-(3-(methylsulfonyl)pyridin-2-yl)pyrimidine-4,6-diamine] | †† (††: 0.37-0.39)
4 | CC(NC1CC(F)(F)C1)c1ccc(Nc2cc(Nc3ncccc3S(C)(=O)=O)ncn2)nc1 (centres unmarked) [Compound 35, N^4-(5-(1-(3,3-difluorocyclobutylamino)ethyl)pyridin-2-yl)-N^6-(3-(methylsulfonyl)pyridin-2-yl)pyrimidine-4,6-diamine] | ††† (†††: >0.39)
5 | Cc1cccc(Nc2cc(Nc3cccnc3S(C)(=O)=O)ncn2)n1 [Compound 59, N^4-(6-methylpyridin-2-yl)-N^6-(2-(methylsulfonyl)pyridin-3-yl) pyrimidine-4,6-diamine] | ††† (†††: >0.39)
6 | C[C@H]1CN(C2CC2)CCN1c1ccc(Nc2cc(Nc3ncccc3S(C)(=O)=O)ncn2)nc1 [Compound 8, (S)—N^4-(5-(4-cyclopropyl-2-methylpiperazin-1-yl)pyridin-2-yl)-N^6-(3-(methylsulfonyl)pyridin-2-yl)pyrimidine-4,6-diamine] | ††† (†††: >0.39)
7 | Cc1cccc(Nc2cc(Nc3ccccc3S(C)(=O)=O)nc(C)n2)n1 [Compound 56, 2-methyl-N^4-(6-methylpyridin-2-yl)-N^6-(2-(methylsulfonyl)phenyl) pyrimidine-4,6-diamine] | † (†: < 0.37)
8 | CS(=O)(=O)c1cccnc1Nc1cc(Nc2ccc(C(=O)NC3CC(F)(F)C3)cn2)ncn1 [Compound 38, N-(3,3-difluorocyclobutyl)-6-(6-(3-(methylsulfonyl)pyridine-2-ylamino)pyrimidin-4-ylamino)nicotinamide] | ††† (†††: >0.39)
9 | CC(c1ccc(Nc2cc(Nc3ncccc3S(C)(=O)=O)ncn2)nc1)N1CC2(CC(F)C2)C1 (stereo in doubt) [Compound 10, N^4-(5-((1R)-1-(6-fluoro-2-azaspiro[3.3]heptan-2-yl)ethyl)pyridin-2-yl)-N^6-(3-(methylsulfonyl)pyridin-2-yl)pyrimidine-4,6-diamine] | ††† (†††: >0.39)
10 | C[C@H](c1ccc(Nc2cc(Nc3ncccc3S(C)(=O)=O)ncn2)nc1)N1CCC2(CCOCC2)C1 [Compound 30, (R)—N^4-(5-(1-(8-oxa-2-azaspiro[4.5]decan-2-yl)ethyl)pyridin-2-yl)-N^6-(3-(methylsulfonyl)pyridin-2-yl)pyrimidine-4,6-diamine] | †† (††: 0.37-0.39)
11 | Cc1cncc(Nc2cc(Nc3ccccc3C(N)=O)ncn2)n1 [Compound 49, 2-(6-(6-methylpyrazin-2-ylamino)pyrimidin-4-ylamino)benzamide] | ††† (†††: >0.39)
12 | CC1(CNc2ccc(Nc3cc(Nc4ncccc4S(C)(=O)=O)ncn3)nc2)COC1 [Compound 36, N^4-(5-(((3-methyloxetan-3-yl)methyl)amino)pyridin-2-yl)-N^6-(3-(methylsulfonyl)pyridin-2-yl)pyrimidine-4,6-diamine] | ††† (†††: >0.39)
13 | Cc1cccc(Nc2cc(Nc3ccccc3NS(C)(=O)=O)ncn2)n1 [Compound 53, N-(2-(6-(6-methylpyridin-2-ylamino)pyrimidin-4-ylamino)phenyl) methanesulfonamide] | ††† (†††: >0.39)
14 | Cn1ccc(Nc2cc(Nc3ccccc3S(C)(=O)=O)ncn2)n1 [Compound 66, N^4-(1-methyl-1H-pyrazol-3-yl)-N^6-(2-(methylsulfonyl)phenyl) pyrimidine-4,6-diamine] | ††† (†††: >0.39)
15 | Cc1nccc(Nc2cc(Nc3ccccc3C(N)=O)ncn2)n1 [Compound 48, 2-((6-((2-methylpyrimidin-4-yl)amino)pyrimidin-4-yl)amino) benzamide] | ††† (†††: >0.39)
16 | CC(c1ccc(Nc2ncnc(Nc3ncccc3S(C)(=O)=O)c2F)nc1)N1CC2(COC2)C1 (centres unmarked) [Compound 75, N^4-(5-(1-(2-oxa-6-azaspiro[3.3]heptan-6-yl)ethyl)pyridin-2-yl)-5-fluoro-N^6-(3-(methylsulfonyl)pyridin-2-yl)pyrimidine-4,6-diamine] | † (†: < 0.37)

Row | SMILES | Ligand Efficiency
17 | Cc1cccc(Nc2cc(Nc3ccccc3C(N)=O)nc(N)n2)n1 [Compound 55, 2-((2-amino-6-((6-methylpyridin-2-yl)amino)pyrimidin-4-yl)amino)benzamide] | †† (††: 0.37-0.39)
18 | Cc1ccnc(Nc2cc(Nc3ccccc3C(N)=O)ncn2)n1 [Compound 58, 2-(6-(4-methylpyrimidin-2-ylamino)pyrimidin-4-ylamino)benzamide] | ††† (†††: >0.39)
19 | Cc1ccnc(Nc2cc(Nc3ccccc3C(N)=O)ncn2)c1 [Compound 45, 2-((6-((4-methylpyridin-2-yl)amino)pyrimidin-4-yl)amino) benzamide] | ††† (†††: >0.39)
20 | CS(=O)(=O)c1cccnc1Nc1cc(Nc2ccc3c(n2)CC[C@@H]3N2CC3(COC3)C2)ncn1 [Compound 9, N^4-((5S)-5-(2-oxa-6-azaspiro[3.3]heptan-6-yl)-6,7-dihydro-5H-cyclopenta[b]pyridin-2-yl)-N^6-(3-(methylsulfonyl)pyridin-2-yl)pyrimidine-4,6-diamine] | ††† (†††: >0.39)
21 | CS(=O)(=O)c1cccnc1Nc1cc(Nc2ccc(N3CCN(C4CC4)CC3)cn2)ncn1 [Compound 7, N^4-(5-(4-cyclopropylpiperazin-1-yl)pyridin-2-yl)-N^6-(3-(methylsulfonyl)pyridin-2-yl)pyrimidine-4,6-diamine] | ††† (†††: >0.39)
22 | Cc1ccnc(Nc2cc(Nc3ccccc3P(C)(C)=O)ncn2)c1 [Compound 63, N^4-(2-(dimethylphosphoryl)phenyl)-N^6-(4-methylpyridin-2-yl) pyrimidine-4,6-diamine] | ††† (†††: >0.39)
23 | Cc1cccc(Nc2cc(Nc3ncccc3CS(C)(=O)=O)ncn2)n1 [Compound 71, N^4-(6-methylpyridin-2-yl)-N^6-(3-((methylsulfonyl)methyl)pyridin-2-yl)pyrimidine-4,6-diamine] | ††† (†††: >0.39)
24 | Cc1cccc(Nc2cc(Nc3cnccc3C(N)=O)ncn2)n1 [Compound 61, 3-((6-((6-methylpyridin-2-yl)amino)pyrimidin-4-yl)amino) isonicotinamide] | ††† (†††: >0.39)
25 | Cc1cc(Nc2cc(Nc3ncccc3S(C)(=O)=O)ncn2)ncc1NC1(C)COC1 [Compound 23, N^4-(4-methyl-5-((3-methyloxetan-3-yl)amino)pyridin-2-yl)-N-(3-(methylsulfonyl)pyridin-2-yl)pyrimidine-4,6-diamine] | ††† (†††: >0.39)
26 | CS(=O)(=O)c1cccnc1Nc1cc(Nc2ncccc2F)ncn1 [Compound 64, N^4-(3-fluoropyridin-2-yl)-N^6-(3-(methylsulfonyl)pyridin-2-yl) pyrimidine-4,6-diamine] | ††† (†††: >0.39)
27 | CC(c1ccc(Nc2cc(Nc3ncccc3S(C)(=O)=O)ncn2)nc1)N1CC2(CCOCC2)C1 (stereo in doubt) [Compound 31, (R)—N^4-(5-(1-(7-oxa-2-azaspiro[3.5]nonan-2-yl)ethyl)pyridine-2-yl)-N^6-(3-(methylsulfonyl)pyridin-2-yl)pyrimidine-4,6-diamine] | †† (††: 0.37-0.39)
28 | Cc1cccc(Nc2cc(Nc3ccccc3C(N)=O)ncn2)n1 [Compound 46] | ††† (†††: >0.39)
29 | Cc1cc(Nc2cc(Nc3ncccc3S(C)(=O)=O)ncn2)nnc1C(C)N1CC2(COC2)C1 (centres unmarked) [Compound 77, N^4-(6-(1-(2-oxa-6-azaspiro[3.3]heptan-6-yl)ethyl)-5-methylpyridazin-3-yl)-N^6-(3-(methylsulfonyl)pyridin-2-yl)pyrimidine-4,6-diamine] | †† (††: 0.37-0.39)
30 | CC(c1ccc(Nc2cc(Nc3ncccc3S(C)(=O)=O)ncn2)nc1)N1CCCC1 (stereo in doubt) [Compound 15, (R)—N^4-(3-(methylsulfonyl)pyridin-2-yl)-N^6-(5-(1-(pyrrolidin-1-yl)ethyl)pyridin-2-yl)pyrimidine-4,6-diamine] | ††† (†††: >0.39)
31 | COc1cnc(Nc2cc(Nc3ccc([C@H](C)N4CC5(COC5)C4)cn3)ncn2)c(S(C)(=O)=O)c1 [Compound 3, (S)—N^4-(5-(1-(2-oxa-6-azaspiro[3.3]heptan-6-yl)ethyl)pyridine-2-yl)-N^6-(5-methoxy-3-(methylsulfonyl)pyridin-2-yl)pyrimidine-4,6-diamine] | †† (††: 0.37-0.39)
32 | CC(c1ccc(Nc2cc(Nc3ncccc3S(C)(=O)=O)ncn2)nc1)N1CC(F)C1 (centres unmarked) [Compound 22, N^4-(5-(1-(3-fluoroazetidin-1-yl)ethyl)pyridin-2-yl)-N^6-(3-(methylsulfonyl)pyridin-2-yl)pyrimidine-4,6-diamine] | ††† (†††: >0.39)
